Source: the Deep4Chem optical property database

Assay: solvent given as SMILES

SMILES: OB(O)c1ccc(-c2ccc(N(c3ccccc3)c3ccccc3)cc2)cc1
- absorption maximum (in C1CCCCC1): 332.8 nm
- absorption maximum (in C1CCOC1): 331 nm
- absorption maximum (in CCO): 329.6 nm
- absorption maximum (in CCOCC): 330 nm
- absorption maximum (in CO): 326 nm

SMILES: O=[N+]([O-])c1cc(/N=N/c2cc3c4c(c2)CCCN4CCC3)cc([N+](=O)[O-])c1
- absorption maximum (in CCOC(C)=O): 513 nm

SMILES: COc1ccc(C2=C(C)C3=C(c4c(-c5ccccn5)nc5ccccn45)c4c(C)cc(C)n4[B-](F)(F)[N+]3=C2C)cc1
- absorption maximum (in ClCCl): 535 nm

SMILES: Oc1c(-c2ccco2)cccc1-c1nc2ccccc2s1
- absorption maximum (in ClCCl): 360 nm
- absorption maximum (in O): 360 nm

SMILES: CCCCN(CCCC)c1ccc(C#Cc2cc(C#Cc3ccc(C(F)(F)F)cc3)c(C#Cc3ccc(N(CCCC)CCCC)cc3)cc2C#Cc2ccc(C(F)(F)F)cc2)cc1
- absorption maximum (in ClCCl): 438 nm

SMILES: COc1ccc(-c2c3cc4ccccc4cc3c(C#Cc3ccccc3)c3cc4ccccc4cc23)cc1
- absorption maximum (in ClCCl): 635 nm

SMILES: COc1ccc(-c2csc(/C(C#N)=N\Nc3ccc(C#N)cc3)n2)cc1
- absorption maximum (in CC#N): 401 nm
- absorption maximum (in CCO): 403 nm
- absorption maximum (in CN(C)C=O): 481 nm
- absorption maximum (in Cc1ccccc1): 405 nm
- absorption maximum (in ClCCl): 404 nm

SMILES: COCCOCCOCCOCC(COCCOCCOCCOC)Oc1cc(/C=C/c2ccc(/C=C(\C#N)c3ccc(C(F)(F)F)cc3)cc2)c(OC(COCCOCCOCCOC)COCCOCCOCCOC)cc1/C=C/c1ccc(/C=C(\C#N)c2ccc(C(F)(F)F)cc2)cc1
- absorption maximum (in ClCCl): 439 nm

SMILES: O=C1C=C(Nc2ccc(F)cc2F)C(=O)c2ccccc21
- absorption maximum (in CCCCCC): 439 nm
- absorption maximum (in CO): 443 nm

SMILES: C[Si](C)(c1cccc2cc3ccccc3cc12)[Si](C)(C)c1cccc2cc3ccccc3cc12
- absorption maximum (in C1CCCCC1): 385.82 nm

SMILES: CCCCCCn1c2cc(/C=C/c3ccccc3)ccc2c2ccc(/C=C/c3ccccc3)cc21
- absorption maximum (in ClC(Cl)Cl): 390.62 nm

SMILES: c1ccc(-c2cc(-c3ccc4ccc5cccc6ccc3c4c56)ccn2)nc1
- absorption maximum (in C1CCOC1): 344 nm
- absorption maximum (in CC#N): 342.99 nm
- absorption maximum (in CCC#N): 342.99 nm
- absorption maximum (in CCCC#N): 344 nm
- absorption maximum (in CCCCCC): 342 nm
- absorption maximum (in CCCO): 342.99 nm
- absorption maximum (in CCO): 342.99 nm
- absorption maximum (in CO): 342.99 nm
- absorption maximum (in Cc1ccccc1): 342.99 nm

SMILES: COC(=O)c1ccc2c3ccc(C(=O)OC)c4c(C(=O)OC)ccc(c5ccc(C(=O)OC)c1c25)c43
- absorption maximum (in C1COCCO1): 470 nm
- absorption maximum (in CC#N): 465 nm
- absorption maximum (in CC(C)=O): 465 nm
- absorption maximum (in CC(C)O): 476 nm
- absorption maximum (in CCCCO): 476 nm
- absorption maximum (in CN(C)C=O): 468 nm
- absorption maximum (in CO): 465 nm
- absorption maximum (in ClC(Cl)Cl): 469 nm

SMILES: O=C1c2ccccc2S(=O)(=O)c2ccc(-n3c4ccccc4c4ccccc43)cc21
- absorption maximum (in C1CCOC1): 404 nm
- absorption maximum (in CCCCCC): 404 nm
- absorption maximum (in Cc1ccccc1): 404 nm
- absorption maximum (in ClC(Cl)Cl): 404 nm
- absorption maximum (in ClCCl): 404 nm

SMILES: F[B-]1(F)OC(c2ccccc2)=Cc2c3ccccc3c3ccccc3[n+]21
- absorption maximum (in ClC(Cl)Cl): 432 nm

SMILES: COc1cccc(OC)c1C1=C2C(C)=CC(C)=[N+]2[B-](F)(F)n2c(C)cc(C)c21
- absorption maximum (in C1CCOC1): 506 nm
- absorption maximum (in CC#N): 500 nm
- absorption maximum (in CC(=O)C(C)(C)C): 505 nm
- absorption maximum (in CC(C)=O): 503 nm
- absorption maximum (in CCCCCC): 507 nm
- absorption maximum (in CCOC(C)=O): 504 nm
- absorption maximum (in CO): 503 nm

SMILES: CC[n+]1c(C=C2C(=O)C(C=C3N(C)c4ccccc4C3(C)C)=C2[O-])[se]c2ccccc21
- absorption maximum (in CO): 643 nm
- absorption maximum (in ClC(Cl)Cl): 657 nm
- absorption maximum (in ClCCl): 658 nm

SMILES: N#Cc1ccc(-c2nc(-c3ccccc3)c(-c3ccccc3)[nH]2)cc1
- absorption maximum (in CO): 339 nm

SMILES: Cc1cc(C)c(C2=C3C=C(/C=C/C(=O)OC(C)(C)C)C=[N+]3[B-](F)(F)n3cc(/C=C/C(=O)OC(C)(C)C)cc32)c(C)c1
- absorption maximum (in ClCCl): 580 nm

SMILES: CCCCC(CC)COc1ccc2nc(-c3ccc(-c4ccccc4)s3)sc2c1 (configuration not stated)
- absorption maximum (in ClCCl): 368 nm
